For this data set, the system named is ionized calcium. Briefly: Ionized calcium, ion-selective electrode, trials IDA-04/IDA-05. The data set is classed as in vivo, human. Conditions: IDA-04 and IDA-05 combined. An excerpt:
The term “serum ionized calcium” as used herein refers to the level of calcium ions (Ca^2+) in blood serum as measured using the IL GEM Premier 3500 PAK cartridge. The central component is the sensor card, which provides a low volume, gas tight chamber in which the blood sample is presented to the sensors. The pH and electrolyte sensors are all based on the principle of ion-selective electrodes; that is, an electrical potential can be established across a membrane which is selectively permeable to a specific ion. The pH and electrolyte sensors are polyvinyl chloride (PVC) based ion selective electrodes, consisting of an internal Ag/AgCl reference electrode and internal salt layer. The potentials are measured against the card reference electrode. […]
The following safety laboratory assessments were analysed: • S-phosphate: inorganic phosphorous forms an ammonium phosphomolybdate complex having the formula (NH4)3[PO4](MoO3)12 with ammonium molybdate in the presence of sulfuric acid. The complex was determined photometrically in the ultraviolet region (340 nm) of the spectrum using the Roche Modular and Cobas Analyzer. • iFGF23 and cFGF23: the human intact FGF23 was measured by the 2nd generation Elisa kit manufactured by Immonotropics, Inc, San Clemente, CA. […] The human C-terminal FGF23 was measured by the Elisa kit manufactured by Immonotropics, Inc, San Clemente, CA. […]

The values that follow come from patent publication US20260091015A1, “TREATING IRON DEFICIENCY WITH FERRIC CARBOXYMALTOSE” (PHARMACOSMOS HOLDING A/S, priority 2018, published 2026).

In the case of ferric carboxymaltose [FCM], the ionized calcium result is “decrease”.
